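Cultured in 96-well plates, cells were exposed to test compound for 48 hours across five concentrations. TGI denotes the concentration required for complete inhibition of growth.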
Legend:
Test in all cases: inhibition of tumour cell growth, NCI panel, 48 h
LOX IMVI melanoma = system: LOX IMVI melanoma
T-47D breast = system: T-47D breast
SK-MEL-5 melanoma = system: SK-MEL-5 melanoma
RXF 393 renal = system: RXF 393 renal
SNB-75 CNS = system: SNB-75 CNS
MDA-N = system: MDA-N
HS 578T breast = system: HS 578T breast
IGROV1 ovarian = system: IGROV1 ovarian
PC-3 prostate = system: PC-3 prostate
MCF7 breast = system: MCF7 breast
RPMI-8226 leukemia = system: RPMI-8226 leukemia
SF-539 CNS = system: SF-539 CNS
M14 melanoma = system: M14 melanoma
MDA-MB-231 breast = system: MDA-MB-231 breast
NCI-H522 lung = system: NCI-H522 lung
HOP-62 NSCLC = system: HOP-62 NSCLC
A549 NSCLC = system: A549 NSCLC
EKVX NSCLC = system: EKVX NSCLC
SK-OV-3 ovarian = system: SK-OV-3 ovarian

Measured: TGI

O=c1[nH]c2nc3ccccc3c(=O)n2/c1=C/c1ccccc1
44.9 µM: SF-539 CNS
99.4 µM: SNB-75 CNS
78.5 µM: MDA-N
> 100 µM: all other assays above

Cc1nc(C(N)=S)sc1C(=O)CC(=O)C(=O)Nc1ccc(Br)cc1
> 100 µM: all assays above

Cc1cc(C)n(-c2nc(-n3nc(C)cc3C)nc(-n3nc(C)cc3C)n2)n1
not listed: SNB-75 CNS
> 100 µM: all other assays above

Cc1cccc2c(N)c3cccc(C(=O)NCC[N+](C)(C)Cc4ccccc4[N+](=O)[O-])c3nc12
> 37.7 µM: RXF 393 renal
45.2 µM: PC-3 prostate
> 41.4 µM: MDA-N | HOP-62 NSCLC
> 54.5 µM: A549 NSCLC
> 58.3 µM: RPMI-8226 leukemia
8.82 µM: SNB-75 CNS
18.5 µM: NCI-H522 lung
> 95.1 µM: SK-OV-3 ovarian
> 40.3 µM: M14 melanoma
> 55.6 µM: MDA-MB-231 breast
> 31.2 µM: HS 578T breast
> 32.5 µM: SF-539 CNS
> 41.1 µM: SK-MEL-5 melanoma
> 100 µM: all other assays above

O=S(=O)(CC(Cl)c1ccccc1)c1nc2ccccc2s1 (centres undefined)
24.2 µM: IGROV1 ovarian
30.4 µM: MDA-MB-231 breast
4.04 µM: LOX IMVI melanoma
41.7 µM: T-47D breast
27.8 µM: SNB-75 CNS
41.1 µM: HOP-62 NSCLC
18.1 µM: MDA-N
> 69 µM: HS 578T breast
16.7 µM: SK-MEL-5 melanoma
35.4 µM: EKVX NSCLC
4.89 µM: NCI-H522 lung
23.9 µM: SF-539 CNS
43.1 µM: A549 NSCLC
32.9 µM: SK-OV-3 ovarian
9.65 µM: RPMI-8226 leukemia
42 µM: RXF 393 renal
29.9 µM: PC-3 prostate
7.2 µM: M14 melanoma
23.3 µM: MCF7 breast

C/C(=N\O)c1ccc(OCc2cc(C(F)(F)F)cc(C(F)(F)F)c2)cc1
72.4 µM: RXF 393 renal
not listed: RPMI-8226 leukemia
> 100 µM: all other assays above

Cc1cccc(N=Nc2c(C)nn(C(=O)CC(=O)Nc3ccc(Cl)cc3)c2C)c1
96.9 µM: EKVX NSCLC
95.9 µM: SNB-75 CNS
not listed: IGROV1 ovarian
> 100 µM: all other assays above

Brc1ccc(-c2[nH]c3ccccc3c2/C=N\Nc2ccc(-c3nc4ccccc4[nH]3)cc2)cc1
> 68.5 µM: HOP-62 NSCLC
> 43.6 µM: RXF 393 renal
1.41 µM: SK-MEL-5 melanoma
> 88.3 µM: IGROV1 ovarian
< 0.01 µM: MDA-N | HS 578T breast | NCI-H522 lung
> 52.2 µM: EKVX NSCLC
25.4 µM: RPMI-8226 leukemia
0.559 µM: MDA-MB-231 breast
not listed: SNB-75 CNS | SF-539 CNS
> 100 µM: all other assays above

NC1CCN(c2nc3ccccc3c3c2CCCC3)CC1
> 100 µM: HS 578T breast
19.5 µM: IGROV1 ovarian
11.2 µM: RXF 393 renal
11.1 µM: RPMI-8226 leukemia
3.84 µM: M14 melanoma
7.01 µM: SK-MEL-5 melanoma
23.5 µM: A549 NSCLC
8.6 µM: MCF7 breast
20.4 µM: PC-3 prostate
7.29 µM: T-47D breast
27.1 µM: SK-OV-3 ovarian
14.2 µM: LOX IMVI melanoma
35.1 µM: HOP-62 NSCLC
11.8 µM: SF-539 CNS
21.4 µM: EKVX NSCLC
19.3 µM: NCI-H522 lung
12.8 µM: MDA-MB-231 breast
9.6 µM: MDA-N
22.1 µM: SNB-75 CNS

C/C(O)=C(/C=N/C(=S)Nc1ccccc1)C(=O)Nc1ccccc1C
> 100 µM: all assays above

Cc1cc(C)c(/C=C2\C(=O)Nc3ccccc32)[nH]1
not listed: IGROV1 ovarian
> 100 µM: all other assays above

COCN1C(=O)[C@@H]2C[C@@H](O)CN2C(=O)c2ccccc21
not listed: SF-539 CNS
> 100 µM: all other assays above

COC(=O)C1(Cc2ccccc2)Cc2ccccc2C1O (centres undefined)
not listed: M14 melanoma
> 100 µM: all other assays above
